Biological target: T1, Methionine aminopeptidase (Escherichia coli (strain K12), UniProt P0AE18)
T1 sequence (P0AE18 whole entry): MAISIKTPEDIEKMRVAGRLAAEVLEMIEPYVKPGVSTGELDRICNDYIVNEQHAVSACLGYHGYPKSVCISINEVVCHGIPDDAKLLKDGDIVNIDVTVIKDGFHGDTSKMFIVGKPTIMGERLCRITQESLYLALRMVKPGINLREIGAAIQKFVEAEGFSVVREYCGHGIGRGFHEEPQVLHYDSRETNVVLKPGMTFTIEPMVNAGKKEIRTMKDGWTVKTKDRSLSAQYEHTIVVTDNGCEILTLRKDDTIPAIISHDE
Experiment: EcMAP Enzyme Inhibition Assay
Details: pH 7.5; 30 °C
Description: The inhibitory activity of a compound toward EcMAP was measured by incubating the compound at various concentrations in the presence of the enzyme and the peptide substrate MGMM. Activity can be determined based on the amount of GMM produced or the amount of MGMM consumed. The integrated area of the tripeptide or tetrapeptide peak was compared to a calibration curve generated by running HPLC chromatograms of known concentrations of the polypeptides.

`COc1ccc(NN=c2c(=N)nnc2=N)cc1` [3-imino-4-[(E)-2-(4-methoxyphenyl)diazen-1-yl]-3H-pyrazol-5-amine] was tested, and the IC50 was 1.5 µM.

With `N=c1nnc(=N)c1=NNc1cccc(F)c1` [4-[(E)-2-(3-fluorophenyl)diazen-1-yl]-3-imino-3H-pyrazol-5-amine] the IC50 was 0.55 µM.

`N=c1nnc(=N)c1=NNc1cccc(C(=O)O)c1O` [3-[(E)-2-(5-amino-3-imino-3H-pyrazol-4-yl)diazen-1-yl]-2-hydroxybenzoic acid] was tested, and the IC50 was 2 µM.

`Cc1c(Cl)cccc1NN=c1c(=N)nnc1=N` [4-[(E)-2-(3-chloro-2-methylphenyl)diazen-1-yl]-3-imino-3H-pyrazol-5-amine] was tested, and the IC50 was 0.55 µM.

`N=c1nnc(=N)c1=NNc1ccc(Cl)cc1` [4-[(E)-2-(4-chlorophenyl)diazen-1-yl]-3-imino-3H-pyrazol-5-amine] showed an IC50 of 1.25 µM.

From BindingDB's records for doi:10.1002/prot.21207 (The Procter & Gamble Pharmaceuticals, 2007)
